# Where “and” joins values, the source holds several entries; their conditions need not be identical. Equal values may be shown once.
# Assays:
# [1] = test system: A549/K1.5 cells; assay: Live cell fluorescent imaging (lysosomal localization and photodestruction); format: cell-based, Human; conditions: A549/K1.5; 470 nm microscope illumination
# Description: (§1) Lysosomes and mitochondria were stained by incubating the cells 100 nM LysoTracker® Red or 100 nM MitoTracker® Red, respectively, for 1 hour. For subcellular localization of C-1330, cells were also stained with 10 μM C-1330 for 30 minutes.
# (§2) Nuclear staining was performed prior to fluorescence imaging by replacing the growth medium with medium containing 2 μg/ml Hoechst 33342, followed by incubation for 10 minutes. Prior to nuclear staining, A549/K1.5 cells were incubated for 1 hour with 10 μM fumitremorgin C (FTC) to prevent efflux of Hoechst 33342 by ABCG2.
# (§3) Live cell fluorescent imaging was performed using an Axiovert 200 inverted fluorescence microscope (Carl Zeiss) equipped with a digital camera. […] Light intensity was maintained at 12.5% of the maximum. The magnification used was ×630.
# (§4) Cells were pre-incubated with 10 mM ammonium chloride for 30 minutes or with 1 μM bafilomycin A1 for 60 minutes, prior to being incubated with 10 μM C-1330 for 30 minutes as described hereinabove. Ammonium chloride and bafilomycin A1 remained present during the incubation with C-1330.
# A549/K1.5 cells were incubated with 10 μM doxorubicin for 30 minutes, and then observed and illuminated (at 470 nm) by live cell fluorescent imaging as described in the Materials and Methods section. Upon illumination, the cells were photographed every second, in order to observe changes in the cells over time.
# [2] = test system: A549 cells; assay: Texas Red-phalloidin staining of F-actin; format: cell-based, Human; conditions: 10 μM 30 minutes
# Description: A549 cells were grown on coverslips in 24-well plates until confluence was reached. Cells were then incubated with 10 μM C-1330 for 30 minutes and then exposed to light for 1 minute, in order to achieve lysosomal photodestruction. Control cells were loaded with C-1330 but were not illuminated. C1330-loaded cells were ether fixed and stained with Texas Red®-X Phalloidin (Life Technologies) with no illumination or stained with Texas Red®-X Phalloidin 2 hours after illumination. Cells were then washed twice with PBS and fixed by adding 4% formaldehyde for 10 minutes at room temperature. Following two additional washes with PBS, 0.1% Triton X-100 was added for 10 minutes, and then washed twice to remove the Triton X-100. Blocking was then achieved using a solution of 20% skim milk and 2.5% fetal calf serum for 20 minutes. At this stage, 5 μl of Texas Red®-X Phalloidin stock solution was added to 0.2 ml of PBS and the samples were incubated for 20 minutes while being protected from light. The samples were finally rinsed to remove excess Texas Red®-X Phalloidin. Coverslips were removed gently from wells and attached onto slides using Fluoromount-G. Fluorescent cells were analyzed by a fluorescence microscope, using an excitation wavelength of 545 nm and an emission wavelength of 605 nm.
# [3] = test system: A549 cells; assay: Crystal violet staining of illuminated monolayers; format: cell-based, Human; conditions: 10 μM 30 min, 470 nm 1 minute, 48 hours after illumination
# Description: (§5) A549 and A549/K1.5 cells were grown to full confluence on glass-bottom plates and loaded with 10 μM C-1330 for 30 minutes. Before illumination, the spent medium was replaced by fresh medium. Using the inverted fluorescence microscope as a source of illumination, each plate was illuminated for 1 minute at a wavelength of 470 nm, at an intensity of approximately 3 W/m^2. Cells were then incubated at 37° C. for an additional 48 hours. The cells were then washed twice with PBS, fixed with 70% methanol for 10 minutes and stained with a diluted dye solution (1:5) of crystal violet. Stained monolayer cells were then washed three times with double distilled water. Crystal violet-stained cells were then examined and photographed using an M80 binocular at a x8 magnification (Leica Microsystems GmbH), and by an inverted Cell-Observer microscope, at a x1000 magnification (Carl Zeiss).
# (§6) Monolayers of A549 and A549/K1.5 cells were pulse-incubated with C-1330 for 30 minutes, washed with drug-free medium, subjected to illumination for 1 minute with a fluorescence microscope, and incubated for 48 additional hours in growth medium. The confluent monolayers were then washed with PBS, fixed with methanol, and stained with crystal violet. The monolayers were then examined by light microscopy.
# [4] = test system: A549/K1.5 cells; assay: Crystal violet staining of illuminated monolayers; format: cell-based, Human; conditions: 10 μM 30 min, 470 nm 1 minute, 48 hours after illumination
# Description: as §5, §6
# [5] = test system: A549 cells; assay: Live cell fluorescent imaging (lysosomal localization and photodestruction); format: cell-based, Human; conditions: 470 nm microscope illumination
# Description: as §1, §2, §3, §4
# Monolayers of A549 cells were grown in glass-bottom plates and were washed in growth medium. The medium was then replaced with a special isotonic balanced salt solution lacking or containing either N,N′-dimethylthiourea (DMTU), a potent hydroxyl radical and hydrogen peroxide scavenger, L-histidine, a hydroxyl radical and singlet oxygen radical (^1O2) scavenger, or sodium azide, a singlet oxygen radical scavenger. The salt solution consisted of 10 mM HEPES pH 7.4, 120 mM NaCl, 5 mM KCl, 1 mM CaCl2, 1 mM MgCl2, and 25 mM glucose. After incubation for 1 hour, C-1330 was added to the aforementioned solution buffer for an additional 30 minutes, during which the scavengers remained present, in order to load lysosomes. The cells were then examined by fluorescent imaging as described hereinabove.
# [6] = test system: A549 cells; assay: XTT cytotoxicity assay with and without illumination
# Description: (§7) Parental cells and their MDR (multi-drug resistant) sub-lines were seeded in 96-well plates (2×10^4 cells/well in 90 μl growth medium/well). […] Following incubation for 2 hours, the drug-containing medium was replaced by drug-free medium. The cells were then placed on an illuminator plate (Model 460, thin line series, S&S X-Ray Products Inc., Brooklyn, N.Y.) for 1 hour, thereby achieving a light dose of 5 J/cm^2 white light. After illumination, plates were further incubated for an additional 24 hours.
# Cell viability was determined using an XTT (2,3-bis-(2-methoxy-4-nitro-5-sulfophenyl)-2H-tetrazolium-5-carboxanilide) Cell Proliferation Kit (Biological Industries). […] Results are presented as mean values of at least three independent experiments.
# [7] = test system: A549/K1.5 cells; assay: as above; format: cell-based, Human
# Description: Human non-small cell lung cancer A549 cells and their ABCG2-overexpressing MDR (multi-drug resistant) A549/K1.5 sub-line; ovarian carcinoma cell line 2008 and its stable MRP1-transfectant 2008/MRP1; and human non-small lung cancer cell line SW1573 and its ABCB1-overexpressing subline SW1573/2R160) were maintained in RPMI-1640 medium supplemented with 10% fetal bovine serum, 2 mM glutamine, 100 μg/ml penicillin and streptomycin (Biological Industries, Beth-Haemek, Israel) in a humid atmosphere containing 5% CO2 at 37° C.
# as §7
# Cell viability was determined using an XTT (2,3-bis-(2-methoxy-4-nitro-5-sulfophenyl)-2H-tetrazolium-5-carboxanilide) Cell Proliferation Kit (Biological Industries). The drug concentrations required to inhibit cell growth by 50% (i.e., IC50 values) were determined from the cell survival curves in the absence and in the presence of illumination. Results are presented as mean values of at least three independent experiments.
# [8] = test system: A549 cells; assay: XTT cytotoxicity of C-1330 after chloroquine treatment, with and without illumination; format: cell-based, Human; conditions: 24 hours
# [9] = test system: A549 cells; assay: as above; format: cell-based, Human
# Description: A549 cells were seeded in 96-well plates at a concentration of 500 cells/well for the 48 hour chloroquine treatment, or at a concentration of 1000 cells/well for the 24 hour chloroquine treatment, in a total volume of 100 μl of medium per well. Following an overnight incubation, chloroquine was then added at the indicated concentrations for 24 or 48 hours. Lysosomes were then stained with LysoTracker® Red, detected by fluorescent imaging as described hereinabove, and quantified using EZQuant software. […]
# [10] = chloroquine 20 (μM), 24 hours, no illumination
# [11] = chloroquine 20 (μM), 48 hours, no illumination
structure (smiles),measurement,setting,value
CCN(CC)CCNc1ccc2ncn3c4ccc(OC)cc4c(=O)c1c23 [C-1330],lysosomal photodestruction upon blue light illumination,[1],continuous disappearance of lysosomes
same,actin cytoskeleton after illumination,[2]; 2 hours after illumination,devoid of cytoplasmic content and actin cytoskeleton
same,actin cytoskeleton without illumination,[2]; no illumination,retained a normal actin cytoskeleton
same,appearance of illuminated area of monolayer (crystal violet),[3],region of lysed cells
same,appearance of illuminated area of monolayer (crystal violet),[4],region of lysed cells
same,lysosomal photodestruction upon blue light illumination,[5],continuous disappearance of lysosomes
same,difference in survival of illuminated and non-illuminated cells,[6]; 3 μM,29%
same,Fold sensitization,[6]; control vs illumination,6
same,Survival at 3000 nM Control,[6]; no illumination,72% and 72 ± 5%
same,LD50 Control,"[6]; no illumination, 2 h drug, XTT 24 h later",5.023 ± 0.716 µM
same,LD50 Illumination,[6]; white light 1 hour (5 J/cm^2),842 ± 208 nM
same,Survival at 3000 nM Illumination,[6]; white light illumination,43% and 43 ± 6%
same,difference in survival of illuminated and non-illuminated cells,"[7]; A549/K1.5, 3 μM",59%
same,cell death without illumination at the indicated concentration (LD10),"[7]; A549/K1.5, FIG. 9B dotted line, no illumination",approximately 10%
same,cell death with illumination at the indicated concentration (LD70),"[7]; A549/K1.5, FIG. 9B dotted line, white light",~70%
same,Fold sensitization,"[7]; A549/K1.5, control vs illumination",14
same,LD50 Control,"[7]; A549/K1.5, no illumination",12.269 ± 1.119 µM
same,Survival at 3000 nM Control,"[7]; A549/K1.5, no illumination",87 ± 4%
same,LD50 Illumination,"[7]; A549/K1.5, white light 1 hour (5 J/cm^2)",850 ± 23 nM
same,Survival at 3000 nM Illumination,"[7]; A549/K1.5, white light illumination",28 ± 1%
same,resistance of A549/K1.5 cells compared to parental A549 cells,[7]; no illumination,2.5 fold
same,C-1330 LD50 Illumination,[8]; chloroquine 50 (μM),0.637 ± 0.174 µM
same,Survival at 3000 nM Control,"[8]; chloroquine 50 (μM), no illumination",92 ± 7%
same,C-1330 LD50 Illumination,[8]; chloroquine 100 (μM),0.498 ± 0.064 µM
same,C-1330 LD50 Control,"[8]; chloroquine 100 (μM), no illumination",15.048 ± 2.886 µM
same,cell death without illumination at the indicated concentration (LD10),"[9]; 20 μM chloroquine 48 hours, FIG. 12C dotted line, no illumination",approximately 10%
same,cell death with illumination at the indicated concentration (LD90),"[9]; 20 μM chloroquine 48 hours, FIG. 12C dotted line, white light",~90%
same,Fold sensitization,"[9]; chloroquine 20 (nM), 24 hours",23
same,Fold sensitization,"[9]; chloroquine 20 (nM), 48 hours",49
same,C-1330 LD50 Illumination,"[9]; chloroquine 20 (μM), 24 hours",0.648 ± 0.065 µM
same,Survival at 3000 nM Illumination,"[9]; chloroquine 20 (μM), 24 hours",29% and 29 ± 07%
same,C-1330 LD50 Control,[9]; [10],15.222 ± 0.378 µM
same,Survival at 3000 nM Control,[9]; [10],79% and 79 ± 5%
same,C-1330 LD50 Illumination,"[9]; chloroquine 20 (μM), 48 hours",0.7 ± 0.043 µM
same,Survival at 3000 nM Illumination,"[9]; chloroquine 20 (μM), 48 hours",9% and 9 ± 3%
same,C-1330 LD50 Control,[9]; [11],34.137 ± 3.084 µM
same,Survival at 3000 nM Control,[9]; [11],88% and 88 ± 8%
same,Fold sensitization,"[9]; chloroquine 50 (nM), 24 hours",31
same,Survival at 3000 nM Illumination,"[9]; chloroquine 50 (μM), 24 hours",23 ± 2%
same,C-1330 LD50 Control,"[9]; chloroquine 50 (μM), 24 hours, no illumination",19.609 ± 2.454 µM
same,Fold sensitization,"[9]; chloroquine 100 (nM), 24 hours",30
same,Survival at 3000 nM Illumination,"[9]; chloroquine 100 (μM), 24 hours",19 ± 3%
same,Survival at 3000 nM Control,"[9]; chloroquine 100 (μM), 24 hours, no illumination",90 ± 9%

# From patent US8630703B2, “Treatment utilizing hydrophobic weak bases chemotherapeutic agents and illumination” (Technion Research & Development Foundation Limited, priority 2011, dated 2014)
